Experimental data as given in patent US6642222B2, “Pyrano, piperidino, and thiopyrano compounds and methods of use” (Abbott Laboratories, priority 1998, dated 2003).

Tests used:
Landrace Pig Bladder = experiment: Functional potassium channel opening activity in isolated bladder strips (field-stimulated twitch); conditions: for Index: ED50 for P1075 divided by ED50 for the test agonist, averaged over tissues; for Efficacy (% P1075) / Emax: maximal efficacy relative to P1075, field stimulated bladder strips; for pD2 / EC50: negative logarithm of ED50; for Emax / EC50: Sus scrofa; for EC50: read-out: pD2 (converted)
Experimental: Compounds were evaluated for functional potassium channel opening activity using tissue strips obtained from Landrace pig bladders. Landrace pig bladders were obtained from female Landrace pigs of 9-30 kg. Landrace pigs were euthanized with an intraperitoneal injection of pentobarbital solution, Somlethal®, J. A. Webster Inc. Sterling Mass. The entire bladder was removed and immediately placed into Krebs Ringer bicarbonate solution (composition, mM: NaCl, 120; […] Dextrose, 4.7; […] Propranolol (0.004 mM) was included in all of the assays to block β-adrenoceptors. The trigonal and dome portions were […], Strips 3-5 […] (mm) wide and 20 mm long were prepared from the remaining tissue cut in a circular fashion. The mucosal layer was removed. One end was fixed to a stationary glass rod and the other to a Grass FT03 transducer at a basal preload of 1.0 g. Two parallel platinum electrodes were included in the stationary glass trod to provide field stimulation of 0.05 Hz, 0.5 milli-seconds at 20 volts. […] Tissues were allowed to equilibrate for at least 60 minutes and primed with 80 mM KCl. A control concentration response curve (cumulative) was generated for each tissue using the potassium channel opener […] as the control agonist. […] After a 60 minute rinsing period, a concentration response curve (cumulative) was generated for the test agonist in the same fashion as that used for the control agonist […]. The maximal efficacy of each compounds (expressed as % relative to […]) is reported. The amount of agent necessary to cause 50% of the agent's maximal response (ED50) was calculated using “ALLFIT” (DeLean et al., Am. J. […] Agonist potencies were also expressed as an index relative to […]. The index was calculated by dividing the ED50 for […] by the ED50 for the test agonist in a given tissue. Each tissue was used for only one test agonist, and the indices obtained from each tissue were averaged to provide an average index of potency.

[1] = tested on: Guinea-Pig Bladder (GPB) Cells; experiment: Membrane Hyperpolarization (MHP) assay, DiBAC(4)3 / FLIPR; conditions: for Maximal Response (% P1075): maximal steady-state hyperpolarization, normalized to 10 μM P1075 (100%); for EC50: membrane hyperpolarization, GPB cells; for Emax: read-out: Maximal Response (% P1075), maximal steady-state hyperpolarization, normalized to 10 μM P1075 (100%)
Experimental: Compounds were evaluated for potassium channel opening activity using primary cultured guinea-pig urinary bladder (GPB) cells.
For the preparation of urinary bladder smooth muscle cells, urinary bladders were removed from male guinea-pigs (Hartley, Charles River, Wilmington, Mass.) weighing 300-400 grams (g) and placed in ice-cold Ca^2+-free Krebs solution (Composition, millimolar (mM): KCl, 2.7; KH2PO4, 1.5; NaCl, 75; Na2HPO4, 9.6; Na2HPO4.7H2O, 8; MgSO4, 2; glucose, 5; HEPES, 10; pH 7.4). Cells were isolated by enzymatic dissociation (Klockner, U. and Isenberg, G., Pflugers Arch. (1985), 405, 329-339). The bladder was cut into small sections and incubated in 5 milliliters (mL) of the Kreb's solution containing 1 milligram per milliliter (mg/mL) of collagenase (Sigma, St. Louis, Mo.) and 0.2 mg/mL of pronase (Calbiochem, La Jolla, Calif.) with continuous stirring in a cell incubator for 30 minutes. The mixture was then centrifuged at 1300× g for 5 minutes, and the pellet resuspended in Dulbecco's phosphate buffered saline (PBS) (GIBCO, Gaithersburg, Md.) and recentrifuged to remove residual enzyme. The cell pellet was resuspended in 5 mL growth media (composition: Dulbecco's modified Eagle's medium supplemented with 10% fetal bovine serum, 100 units/mL penicillin, 100 units/mL streptomycin and 0.25 mg/mL amphotericin B) and further dissociated by pipetting the suspension through a flame-polished Pasteur pipette and passing it through a polypropylene mesh membrane (Spectrum, Houston, Tex.). The cell density was adjusted to 100,000 cells/mL by resuspension in growth media. Cells were plated in clear-bottomed black 96-well plates (Packard) for membrane potential studies at a density of 20,000 cells/well and maintained in a cell incubator with 90% air: 10% CO2 until confluent. Cells were confirmed to be of smooth muscle type by cytoskeletal staining using a monoclonal mouse anti human-α-smooth muscle actin (Biomeda, Foster City, Calif.).
Functional activity at potassium channels was measured by evaluating changes in membrane potential using the bis-oxonol dye DiBAC(4)3 (Molecular Probes) in a 96-well cell-based kinetic assay system using a Fluorescent Imaging Plate Reader (FLIPR) (K. S. Schroeder et al., J. Biomed. Screen., v. 1 pp. 75-81 (1996)). DiBAC(4)3 is an anionic potentiometric probe which partitions between cells and extracellular solution in a membrane potential-dependent manner. With increasing membrane potential (for example, K^+ depolarization), the probe further partitions into the cell; this is measured as an increase in fluorescence due to dye interaction with intracellular lipids and proteins. Conversely, decreasing membrane potential (hyperpolarization by potassium channel openers) evokes a decrease in fluorescence.
Confluent guinea-pig urinary bladder cells cultured in black clear-bottomed 96-well plates were rinsed twice with 200 mL assay buffer (composition, mM: HEPES, 20; NaCl, 120; KCl, 2; CaCl2, 2; MgCl2, 1; glucose, 5; pH 7.4 at 25° C.) containing 5 μM DiBAC(4)3 and incubated with 180 mL of the buffer in a cell incubator for 30 minutes at 37° C. to ensure dye distribution across the membrane. After recording the baseline fluorescence for 5 minutes, the reference or test compounds, prepared at 10 times the concentration in the assay buffer, were added directly to the wells. Changes in fluorescence were monitored for an additional 25 minutes.
Routinely, five concentrations of P1075 or test compounds (log or half-log dilutions) were evaluated and the maximal steady-state hyperpolarization values (expressed as % relative to P1075) plotted as a function of concentration. The EC50 (concentration that elicites 50% of the maximal response for the test sample) values were calculated by non-linear regression analysis using a four parameter sigmoidal equation. The maximal micromolar EC50 response of each compound (expressed as % relative to P1075) is reported.

SMILES | Index (Landrace Pig Bladder) | Efficacy (% P1075) (Landrace Pig Bladder) | pD2 (Landrace Pig Bladder) | Maximal Response (% P1075) [1] [% P1075] | EC50 [1] [nM] | Emax (Landrace Pig Bladder) [%] | EC50 (Landrace Pig Bladder) [nM] | Index (Landrace Pig Bladder; Hydrochloride) | pD2 (Landrace Pig Bladder; Hydrochloride) | Maximal Response (% P1075) ([1]; Hydrochloride) | EC50 ([1]; Hydrochloride) [nM] | Efficacy (% P1075) (Landrace Pig Bladder; Hydrochloride) | EC50 ([1]; Cavia porcellus) [nM] | Emax ([1]; Cavia porcellus) [%]
O=C1COCC2=C1C(c1ccc(F)c(Br)c1)C1=C(CCS1(=O)=O)N2 (single isomer, unassigned; (+)) [Example 12, (+)-9-(3-bromo-4-fluorophenyl)-2,3,5,9-tetrahydro-4H-pyrano[3,4-b]thieno[2,3-e]pyridin-8(7H)-one 1,1-dioxide] | 3.3 | 85 | 7.2 | 101 | 14 |  |  |  |  |  |  |  |  | 
N#Cc1cccc(C2C3=C(COCC3=O)NC3=C2S(=O)(=O)CC3)c1 (single isomer, unassigned; (+)) [Example 15, (+)9-(3-cyanophenyl)-2,3,5,9-tetrahydro-4H-pyrano [3,4-b]thieno[2,3-e]pyridin-8(7H)-one 1,1-dioxide] | 0.027 |  |  | 90 | 640 | 100 | 2000 |  |  |  |  |  |  | 
O=C1COCC2=C1C(c1ccc(Cl)c([N+](=O)[O-])c1)C1=C(CCS1(=O)=O)N2 (single isomer, unassigned; (+)) [Example 18, (+)-9-(4-chloro-3-nitrophenyl)-2,3,5,9-tetrahydro-4H-pyrano[3,4-b]thieno[2,3-e]pyridin-8(7H)-one 1,1-dioxide] | 1.6 |  | 7.3 | 95 | 58 | 100 |  |  |  |  |  |  |  | 
Cl.O=C1CCC2=C1C(c1ccc(F)c(Br)c1)C1=C(CNCC1=O)N2 (single isomer, unassigned; (-)) [Example 5, (−)-5-(3-bromo-4-fluorolphenyl)-2,3,5,7,8,9-hexahydro-1H-cyclopenta[b][1,7]naphthyridine-4,6-dione Hydrochloride] |  | 100 |  |  |  |  |  | 0.16 | 6.4 | 97 | 190 |  |  | 
Cl.O=C1CCCC2=C1C(c1ccc(F)c(Br)c1)C1=C(CNCC1=O)N2 (single isomer, unassigned; (-)) [Example 7, (−)-5-(3-bromo-4-fluorophenyl)-2,3,5,8,9,10-hexahydrobenzo[b][1,7]naphthyridine-4,6(1H, 7H)-dione Hydrochloride] |  |  |  |  |  | 97 |  | 0.040 | 5.4 | 75 | 570 |  |  | 
O=C1COCC2=C1C(c1ccc(F)c(Br)c1)C1=C(CCS1(=O)=O)N2 (single isomer, unassigned; (-)) [Example 13, (−)-9-(3-bromo-4-fluorophenyl)-2,3,5,9-tetrahydro-4H-pyrano[3,4-b]thieno[2,3-e]pyridin-8(7H)-one 1,1-dioxide] | 0.13 | 98 | 5.9 | 101 | 240 |  |  |  |  |  |  |  |  | 
O=C1COCC2=C1C(c1ccc(Cl)c([N+](=O)[O-])c1)C1=C(CCS1(=O)=O)N2 (single isomer, unassigned; (-)) [Example 19, (−)-9-(4-chloro-3-nitrophenyl)-2,3,5,9-tetrahydro-4H-pyrano[3,4-b]thieno[2,3-e]pyridin-8(7H)-one 1,1-dioxide] | 0.70 | 100 | 6.0 | 94 | 1800 |  |  |  |  |  |  |  |  | 
O=C1COCC2=C1C(c1ccc(F)c(Br)c1)C1=C(COCC1=O)N2 [Example 1, 5-(3-bromo-4-fluorophenyl)-5,10-dihydro-1H,3H-dipyrano[3,4-b:4,3-e]pyridine-4,6(7H,9H)-dione] | 0.36 | 97 | 6.9 | 96 | 27 |  |  |  |  |  |  |  |  | 
Cl.O=C1CCCC2=C1C(c1ccc(F)c(Br)c1)C1=C(CNCC1=O)N2 (stereo not shown) [Example 2, 5-(3-bromo-4-fluorophenyl)-2,3,5,8,9,10-hexahydrobenzo [b][1,7]naphthyridine-4,6(1H, 7H)-dione Hydrochloride] |  |  |  |  |  |  |  | 0.041 | 5.8 | 88 | 650 | 99 |  | 
Cl.O=C1CNCC2=C1C(c1ccc(F)c(Br)c1)C1=C(CCCS1(=O)=O)N2 (stereo not shown) [Example 9, 10-(3-bromo-4-fluorophenyl)-3,4,6,7,8,10-hexahydro-2H-thiopyrano[3,2-b][1,7]naphthyridin-9(5H)-one 1,1-dioxide Hydrochloride] | 0.0015 |  |  |  |  | 82 | 126000 |  |  |  |  |  | 2600 | 89
Cl.O=C1CNCC2=C1C(c1ccc(F)c(Br)c1)C1=C(CCS1(=O)=O)N2 (stereo not shown) [Example 10, 9-(3-Bromo-4-fluorophenyl)-2,3,5,6,7,9-hexahydrothieno [3,2-b][1,7]naphthyridin-8(4H)-one, 1,1-dioxide hydrochloride] | 0.0028 | 96 | 4.3 | 87 | 1400 |  |  |  |  |  |  |  |  | 
O=C1COCC2=C1C(c1ccc(F)c(Br)c1)C1=C(CCS1(=O)=O)N2 (stereo not shown) [Example 11, 9-(3-bromo-4-fluorophenyl)-2,3,5,9-tetrahydro-4H-pyrano[3,4-b]thieno[2,3-e]pyridin-8(7H)-one 1,1-dioxide] | 1.2 |  | 6.8 |  | 23 | 91 |  |  |  |  |  |  |  | 104
O=C1CCCC2=C1C(c1ccc(F)c(Br)c1)C1=C(COCC1=O)N2 (stereo not shown) [Example 20, 5-(3-bromo-4-fluorophenyl)-5,8,9,10-tetrahydro-1H-pyrano[3,4-b]quinoline-4,6(3H, 7H)-dione] | 0.43 |  |  |  |  | 93 | 2510 |  |  |  |  |  | 35 | 93
O=C1COCC2=C1C(c1ccc(F)c(Br)c1)C1=C(CSCC1=O)N2 (stereo not shown) [Example 22, 5-(3-bromo-4-fluorophenyl)-5,10-dihydro-1H,3H-pyrano[3,4-b]thiopyrano[4,3-e]pyridine-4,6(7H,9H)-dione] | 0.027 |  |  |  |  | 100 | 2510 |  |  |  |  |  | 46 | 85
Cl.O=C1CNCC2=C1C(c1ccc(F)c(Br)c1)C1=C(COCC1=O)N2 (stereo not shown) [Example 24, 5-(3-bromo-4-fluorophenyl)-5,8,9,10-tetrahydro-1H-pyrano[3,4-b][1,7]naphthyridine-4,6(3H,7H)-dione Hydrochloride] | 0.055 |  |  |  |  | 100 | 1000 |  |  |  |  |  | 730 | 74
O=C1COCC2=C1C(c1ccc(Cl)c([N+](=O)[O-])c1)C1=C(COCC1=O)N2 [Example 28, 5-(4-chloro-3-nitrophenyl)-5,10-dihydro-1H,3H-dipyrano[3,4-b:4,3-e]pyridine-4,6(7H,9H)-dione] | 0.42 | 94 | 6.7 | 98 | 64 |  |  |  |  |  |  |  |  | 
N#Cc1cccc(C2C3=C(COCC3=O)NC3=C2C(=O)COC3)c1 [Example 29, 5-(3-cyanophenyl)-5,10-dihydro-1H,3H-dipyrano[3,4-b:4,3-e]pyridine-4,6(7H,9H)-dione] | 0.075 | 89 | 5.8 | 87 | 1100 |  |  |  |  |  |  |  |  | 
O=C1COCC2=C1C(c1ccc(F)c(I)c1)C1=C(COCC1=O)N2 [Example 30, 5-(4-fluoro-3-iodophenyl)-5,10-dihydro-1H,3H-dipyrano[3,4-b:4,3-e]pyridine-4,6(7H,9H)-dione] | 1.1 | 100 | 7.6 | 81 | 5 |  |  |  |  |  |  |  |  | 
O=C1COCC2=C1C(c1cc(Br)ccc1O)C1=C(COCC1=O)N2 [Example 31, 5-(5-bromo-2-hydroxyphenyl)-5,10-dihydro-1H,3H-dipyrano[3,4-b:4,3-e]pyridine-4,6(7H,9H)-dione] | 0.065 | 85 | 5.1 | 83 | 1300 |  |  |  |  |  |  |  |  | 
O=C1COCC2=C1C(c1ccc(F)c(C(F)(F)F)c1)C1=C(COCC1=O)N2 [Example 32, 5-[4-fluoro-3-(trifluoromethyl)phenyl]-5,10-dihydro-1H, 3H-dipyrano[3,4-b:4,3-e]pyridine-4,6(7H,9H)-dione] | 0.41 | 100 | 6.3 | 102 | 15 |  |  |  |  |  |  |  |  | 
